Measured values taken from PubChem BioAssay (NCI).
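These data come from cells grown in 96-well plates and exposed to compound for 48 hours at five concentrations. TGI marks complete inhibition of growth.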 *1 amine or outer side, *2 acyl side, *3 side chain or, on linkers, in order; H or OH if unused. Where a SMILES comes first, the peptide text is derived from it. [ ]: non-standard residue; d: D form. The star is where a group is joined. ξ: configuration not given here. X53 = CC(C)C[C@H](N[*:1])C1=N[C@H](C(=O)[*:2])CS1; Ile(3ξ) = CCC(C)[C@H](N)C(=O)O; Allyl(1,1-Me2) = C=CC(C)(C)*

System: NCI-H460 lung
Test: NCI tumour cell line growth inhibition, 48 h

SMILES | TGI
C1CSC2=C(S1)SC1=C(S2)SC(=C2SC3=C(SC4=C(SCCS4)S3)S2)S1 | > 100 µM
Clc1ccc(Cc2nc3cc(Cl)c(Cl)cc3n2CC2CCCN3CCCCC23)cc1Cl (stereo not drawn) | 9.75 µM
C=CC(C)(C)OC[C@@H]1NC(=O)CNC(=O)[C@@H]2CCCN2C(=O)[C@H](C(C)CC)NC(=O)[C@@H]2CSC(=N2)[C@H](CC(C)C)NC1=O (stereo partly drawn) (cyclo(GS(Allyl(1,1-Me2))[X53][Ile(3ξ)]P)) | > 100 µM

System: HCC-2998 colon
Test: NCI tumour cell line growth inhibition, 48 h

SMILES | TGI
O=C1c2ccccc2C(=O)N1[C@@H](Cc1ccccc1)C(=O)n1cccc1CO | > 100 µM
C1CSC2=C(S1)SC1=C(S2)SC(=C2SC3=C(SC4=C(SCCS4)S3)S2)S1 | > 100 µM
Clc1ccc(Cc2nc3cc(Cl)c(Cl)cc3n2CC2CCCN3CCCCC23)cc1Cl (stereo not drawn) | 3.45 µM
C=CC(C)(C)OC[C@@H]1NC(=O)CNC(=O)[C@@H]2CCCN2C(=O)[C@H](C(C)CC)NC(=O)[C@@H]2CSC(=N2)[C@H](CC(C)C)NC1=O (stereo partly drawn) (cyclo(GS(Allyl(1,1-Me2))[X53][Ile(3ξ)]P)) | > 100 µM

System: UO-31 renal
Test: NCI tumour cell line growth inhibition, 48 h

SMILES | TGI
O=C1c2ccccc2C(=O)N1[C@@H](Cc1ccccc1)C(=O)n1cccc1CO | > 100 µM
C1CSC2=C(S1)SC1=C(S2)SC(=C2SC3=C(SC4=C(SCCS4)S3)S2)S1 | > 100 µM
Clc1ccc(Cc2nc3cc(Cl)c(Cl)cc3n2CC2CCCN3CCCCC23)cc1Cl (stereo not drawn) | 1.25 µM
C=CC(C)(C)OC[C@@H]1NC(=O)CNC(=O)[C@@H]2CCCN2C(=O)[C@H](C(C)CC)NC(=O)[C@@H]2CSC(=N2)[C@H](CC(C)C)NC1=O (stereo partly drawn) (cyclo(GS(Allyl(1,1-Me2))[X53][Ile(3ξ)]P)) | > 100 µM

System: OVCAR-5 ovarian
Test: NCI tumour cell line growth inhibition, 48 h

SMILES | TGI
O=C1c2ccccc2C(=O)N1[C@@H](Cc1ccccc1)C(=O)n1cccc1CO | > 100 µM
C1CSC2=C(S1)SC1=C(S2)SC(=C2SC3=C(SC4=C(SCCS4)S3)S2)S1 | > 100 µM
Clc1ccc(Cc2nc3cc(Cl)c(Cl)cc3n2CC2CCCN3CCCCC23)cc1Cl (stereo not drawn) | 12.3 µM
C=CC(C)(C)OC[C@@H]1NC(=O)CNC(=O)[C@@H]2CCCN2C(=O)[C@H](C(C)CC)NC(=O)[C@@H]2CSC(=N2)[C@H](CC(C)C)NC1=O (stereo partly drawn) (cyclo(GS(Allyl(1,1-Me2))[X53][Ile(3ξ)]P)) | > 100 µM

System: MOLT-4 leukemia
Test: NCI tumour cell line growth inhibition, 48 h

SMILES | TGI
O=C1c2ccccc2C(=O)N1[C@@H](Cc1ccccc1)C(=O)n1cccc1CO | > 100 µM
C1CSC2=C(S1)SC1=C(S2)SC(=C2SC3=C(SC4=C(SCCS4)S3)S2)S1 | > 100 µM
Clc1ccc(Cc2nc3cc(Cl)c(Cl)cc3n2CC2CCCN3CCCCC23)cc1Cl (stereo not drawn) | > 100 µM
C=CC(C)(C)OC[C@@H]1NC(=O)CNC(=O)[C@@H]2CCCN2C(=O)[C@H](C(C)CC)NC(=O)[C@@H]2CSC(=N2)[C@H](CC(C)C)NC1=O (stereo partly drawn) (cyclo(GS(Allyl(1,1-Me2))[X53][Ile(3ξ)]P)) | 76.1 µM

System: MDA-MB-435
Test: NCI tumour cell line growth inhibition, 48 h

SMILES | TGI
O=C1c2ccccc2C(=O)N1[C@@H](Cc1ccccc1)C(=O)n1cccc1CO | > 100 µM
C1CSC2=C(S1)SC1=C(S2)SC(=C2SC3=C(SC4=C(SCCS4)S3)S2)S1 | > 100 µM
Clc1ccc(Cc2nc3cc(Cl)c(Cl)cc3n2CC2CCCN3CCCCC23)cc1Cl (stereo not drawn) | 17.2 µM
C=CC(C)(C)OC[C@@H]1NC(=O)CNC(=O)[C@@H]2CCCN2C(=O)[C@H](C(C)CC)NC(=O)[C@@H]2CSC(=N2)[C@H](CC(C)C)NC1=O (stereo partly drawn) (cyclo(GS(Allyl(1,1-Me2))[X53][Ile(3ξ)]P)) | > 100 µM

System: DU-145 prostate
Test: NCI tumour cell line growth inhibition, 48 h

SMILES | TGI
O=C1c2ccccc2C(=O)N1[C@@H](Cc1ccccc1)C(=O)n1cccc1CO | > 100 µM
C1CSC2=C(S1)SC1=C(S2)SC(=C2SC3=C(SC4=C(SCCS4)S3)S2)S1 | > 100 µM
Clc1ccc(Cc2nc3cc(Cl)c(Cl)cc3n2CC2CCCN3CCCCC23)cc1Cl (stereo not drawn) | 19.4 µM
C=CC(C)(C)OC[C@@H]1NC(=O)CNC(=O)[C@@H]2CCCN2C(=O)[C@H](C(C)CC)NC(=O)[C@@H]2CSC(=N2)[C@H](CC(C)C)NC1=O (stereo partly drawn) (cyclo(GS(Allyl(1,1-Me2))[X53][Ile(3ξ)]P)) | > 100 µM

System: HL-60(TB) leukemia
Test: NCI tumour cell line growth inhibition, 48 h

SMILES | TGI
O=C1c2ccccc2C(=O)N1[C@@H](Cc1ccccc1)C(=O)n1cccc1CO | > 100 µM
C1CSC2=C(S1)SC1=C(S2)SC(=C2SC3=C(SC4=C(SCCS4)S3)S2)S1 | > 100 µM
Clc1ccc(Cc2nc3cc(Cl)c(Cl)cc3n2CC2CCCN3CCCCC23)cc1Cl (stereo not drawn) | 5.93 µM
C=CC(C)(C)OC[C@@H]1NC(=O)CNC(=O)[C@@H]2CCCN2C(=O)[C@H](C(C)CC)NC(=O)[C@@H]2CSC(=N2)[C@H](CC(C)C)NC1=O (stereo partly drawn) (cyclo(GS(Allyl(1,1-Me2))[X53][Ile(3ξ)]P)) | 64.4 µM

System: A498 renal
Test: NCI tumour cell line growth inhibition, 48 h

SMILES | TGI
O=C1c2ccccc2C(=O)N1[C@@H](Cc1ccccc1)C(=O)n1cccc1CO | > 100 µM
C1CSC2=C(S1)SC1=C(S2)SC(=C2SC3=C(SC4=C(SCCS4)S3)S2)S1 | > 100 µM
Clc1ccc(Cc2nc3cc(Cl)c(Cl)cc3n2CC2CCCN3CCCCC23)cc1Cl (stereo not drawn) | 21 µM
C=CC(C)(C)OC[C@@H]1NC(=O)CNC(=O)[C@@H]2CCCN2C(=O)[C@H](C(C)CC)NC(=O)[C@@H]2CSC(=N2)[C@H](CC(C)C)NC1=O (stereo partly drawn) (cyclo(GS(Allyl(1,1-Me2))[X53][Ile(3ξ)]P)) | > 100 µM

System: OVCAR-3 ovarian
Test: NCI tumour cell line growth inhibition, 48 h

SMILES | TGI
O=C1c2ccccc2C(=O)N1[C@@H](Cc1ccccc1)C(=O)n1cccc1CO | > 100 µM
C1CSC2=C(S1)SC1=C(S2)SC(=C2SC3=C(SC4=C(SCCS4)S3)S2)S1 | > 100 µM
Clc1ccc(Cc2nc3cc(Cl)c(Cl)cc3n2CC2CCCN3CCCCC23)cc1Cl (stereo not drawn) | 33.2 µM
C=CC(C)(C)OC[C@@H]1NC(=O)CNC(=O)[C@@H]2CCCN2C(=O)[C@H](C(C)CC)NC(=O)[C@@H]2CSC(=N2)[C@H](CC(C)C)NC1=O (stereo partly drawn) (cyclo(GS(Allyl(1,1-Me2))[X53][Ile(3ξ)]P)) | > 100 µM

System: RPMI-8226 leukemia
Test: NCI tumour cell line growth inhibition, 48 h

SMILES | TGI
O=C1c2ccccc2C(=O)N1[C@@H](Cc1ccccc1)C(=O)n1cccc1CO | > 100 µM
C1CSC2=C(S1)SC1=C(S2)SC(=C2SC3=C(SC4=C(SCCS4)S3)S2)S1 | > 100 µM
Clc1ccc(Cc2nc3cc(Cl)c(Cl)cc3n2CC2CCCN3CCCCC23)cc1Cl (stereo not drawn) | > 100 µM
C=CC(C)(C)OC[C@@H]1NC(=O)CNC(=O)[C@@H]2CCCN2C(=O)[C@H](C(C)CC)NC(=O)[C@@H]2CSC(=N2)[C@H](CC(C)C)NC1=O (stereo partly drawn) (cyclo(GS(Allyl(1,1-Me2))[X53][Ile(3ξ)]P)) | 94.1 µM

System: COLO 205 colon
Test: NCI tumour cell line growth inhibition, 48 h

SMILES | TGI
O=C1c2ccccc2C(=O)N1[C@@H](Cc1ccccc1)C(=O)n1cccc1CO | > 100 µM
C1CSC2=C(S1)SC1=C(S2)SC(=C2SC3=C(SC4=C(SCCS4)S3)S2)S1 | > 100 µM
Clc1ccc(Cc2nc3cc(Cl)c(Cl)cc3n2CC2CCCN3CCCCC23)cc1Cl (stereo not drawn) | 4.83 µM
C=CC(C)(C)OC[C@@H]1NC(=O)CNC(=O)[C@@H]2CCCN2C(=O)[C@H](C(C)CC)NC(=O)[C@@H]2CSC(=N2)[C@H](CC(C)C)NC1=O (stereo partly drawn) (cyclo(GS(Allyl(1,1-Me2))[X53][Ile(3ξ)]P)) | > 100 µM

System: SK-MEL-2 melanoma
Test: NCI tumour cell line growth inhibition, 48 h

SMILES | TGI
O=C1c2ccccc2C(=O)N1[C@@H](Cc1ccccc1)C(=O)n1cccc1CO | > 100 µM
C1CSC2=C(S1)SC1=C(S2)SC(=C2SC3=C(SC4=C(SCCS4)S3)S2)S1 | > 100 µM
Clc1ccc(Cc2nc3cc(Cl)c(Cl)cc3n2CC2CCCN3CCCCC23)cc1Cl (stereo not drawn) | 19.7 µM
C=CC(C)(C)OC[C@@H]1NC(=O)CNC(=O)[C@@H]2CCCN2C(=O)[C@H](C(C)CC)NC(=O)[C@@H]2CSC(=N2)[C@H](CC(C)C)NC1=O (stereo partly drawn) (cyclo(GS(Allyl(1,1-Me2))[X53][Ile(3ξ)]P)) | > 100 µM

System: SK-MEL-28 melanoma
Test: NCI tumour cell line growth inhibition, 48 h

SMILES | TGI
O=C1c2ccccc2C(=O)N1[C@@H](Cc1ccccc1)C(=O)n1cccc1CO | > 100 µM
C1CSC2=C(S1)SC1=C(S2)SC(=C2SC3=C(SC4=C(SCCS4)S3)S2)S1 | > 100 µM
Clc1ccc(Cc2nc3cc(Cl)c(Cl)cc3n2CC2CCCN3CCCCC23)cc1Cl (stereo not drawn) | 10.7 µM

System: OVCAR-4 ovarian
Test: NCI tumour cell line growth inhibition, 48 h

SMILES | TGI
O=C1c2ccccc2C(=O)N1[C@@H](Cc1ccccc1)C(=O)n1cccc1CO | > 100 µM
C1CSC2=C(S1)SC1=C(S2)SC(=C2SC3=C(SC4=C(SCCS4)S3)S2)S1 | > 100 µM
Clc1ccc(Cc2nc3cc(Cl)c(Cl)cc3n2CC2CCCN3CCCCC23)cc1Cl (stereo not drawn) | 20.3 µM
C=CC(C)(C)OC[C@@H]1NC(=O)CNC(=O)[C@@H]2CCCN2C(=O)[C@H](C(C)CC)NC(=O)[C@@H]2CSC(=N2)[C@H](CC(C)C)NC1=O (stereo partly drawn) (cyclo(GS(Allyl(1,1-Me2))[X53][Ile(3ξ)]P)) | > 100 µM
